Target: FGFR2 (Homo sapiens (Human), UniProt P21802)
Test: FGFR2 Biochemical Caliper Assay
Conditions: not given
Experimental: Compounds of the present invention were also tested in a FGFR2 Biochemical Caliper Assay. Compounds were prepared in 10 mM DMSO solution and serially diluted into 11 concentrations by 3-fold dilution. […] 5 uL of ATP solution (100 uM) was added to start the reaction and the plate was incubated for 90 minutes, then 70 uL of stopping buffer (0.5M EDTA) was added to terminate the reaction. Each well was analyzed using EZ reader.

Chain of FGFR2 (P21802 22-821): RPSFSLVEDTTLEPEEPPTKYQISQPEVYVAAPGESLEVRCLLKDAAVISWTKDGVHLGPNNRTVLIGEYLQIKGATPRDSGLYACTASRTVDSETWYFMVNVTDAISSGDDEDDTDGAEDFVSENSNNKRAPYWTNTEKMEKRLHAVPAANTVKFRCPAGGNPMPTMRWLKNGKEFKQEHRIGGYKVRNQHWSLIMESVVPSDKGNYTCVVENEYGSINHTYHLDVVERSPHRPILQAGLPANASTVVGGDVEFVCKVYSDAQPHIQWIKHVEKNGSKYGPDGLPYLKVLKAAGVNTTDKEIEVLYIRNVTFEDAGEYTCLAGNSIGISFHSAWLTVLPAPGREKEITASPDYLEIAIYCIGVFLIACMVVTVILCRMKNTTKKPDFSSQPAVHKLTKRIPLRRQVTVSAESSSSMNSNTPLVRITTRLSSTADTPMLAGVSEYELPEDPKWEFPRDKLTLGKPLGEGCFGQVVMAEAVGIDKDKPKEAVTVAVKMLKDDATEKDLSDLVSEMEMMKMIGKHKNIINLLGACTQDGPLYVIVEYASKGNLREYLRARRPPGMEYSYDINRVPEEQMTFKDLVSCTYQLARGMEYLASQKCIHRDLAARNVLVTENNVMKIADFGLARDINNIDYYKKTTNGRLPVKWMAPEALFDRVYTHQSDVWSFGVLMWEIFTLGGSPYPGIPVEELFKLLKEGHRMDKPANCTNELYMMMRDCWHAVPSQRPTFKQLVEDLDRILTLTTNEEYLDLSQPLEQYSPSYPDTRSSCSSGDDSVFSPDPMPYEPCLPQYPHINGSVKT

Row | IC50 | Compound
1 | < 100 nM | C=C(C)C(=O)Nc1ccc(-c2c(-c3ccc(Oc4ccn(C)n4)cc3)c3c(N)ncnc3n2C)cc1 [Example 267]
2 | < 100 nM | C=C(CN(C)C)C(=O)Nc1ccc(-c2c(-c3ccc(C(=O)N4CCCC4)cc3)c3c(N)ncnc3n2C)cc1 [Example 522]
3 | < 100 nM | C=C(C)C(=O)Nc1ccc(-c2c(-c3ccc(C(=O)N4CCC5(CC5)C4)cc3)c3c(N)ncnc3n2C)cc1 [Example 234]
4 | < 100 nM | C=CS(=O)(=O)N1CCC(n2cc(-c3c(-c4ccc(Oc5cccc(C)n5)cc4)c4c(N)ncnc4n3C)cn2)CC1 [Example 648]
5 | < 100 nM | C=C(C)C(=O)Nc1ccc(-c2c(-c3ccc(C(=O)N4CCCCC4)cc3)c3c(N)ncnc3n2C)cc1 [Example 141]
6 | < 100 nM | C=CC(=O)N1CC=C(c2c(-c3ccc(Oc4cccc(CC)n4)c(OC)c3)c3c(N)ncnc3n2C)CC1 [Example 690]
7 | 250 to 1000 nM | C=CC(=O)N1CCC(n2cc(-c3c(-c4ccc(Oc5cnccn5)cc4)c4c(N)ncnc4n3C)cn2)CC1 [Example 642]
8 | 250 to 1000 nM | C=C(C)C(=O)Nc1ccc(-c2c(-c3ccc(C(=O)N4CCC5(CCC5)C4)cc3)c3c(N)ncnc3n2C)cc1 [Example 245]
9 | < 100 nM | C=CC(=O)N1CCC(n2ncc(-c3c(-c4ccc(Oc5cccc(C)n5)cc4)c4c(N)ncnc4n3C)c2C)CC1 [Example 637]
10 | < 100 nM | C=CC(=O)Nc1ccc(-c2c(-c3ccc(Oc4ncccn4)c(OC(F)(F)F)c3)c3c(N)ncnc3n2C)cc1 [Example 53]
11 | < 100 nM | C=C(C)C(=O)Nc1ccc(-c2c(-c3ccc(Oc4ncc(F)cn4)cn3)c3c(N)ncnc3n2C)cc1 [Example 474]
12 | < 100 nM | C=CC(=O)N1CCC(n2cc(-c3c(-c4ccc(Oc5cccc(C)n5)cc4)c4c(N)ncnc4n3C)cn2)C1 (centres unmarked) [Example 630]
13 | 100 to 250 nM | C=CC(=O)NC1CCC(c2c(-c3ccc(Oc4cccc(C)n4)cc3)c3c(N)ncnc3n2C)CC1 (centres unmarked) [Example 662]
14 | < 100 nM | C=C(C)C(=O)Nc1ccc(-c2c(-c3ccc(C(=O)NCC(C)(C)CO)cc3)c3c(N)ncnc3n2C)cc1 [Example 331]
15 | < 100 nM | C=C(C)C(=O)Nc1ccc(-c2c(-c3ccc(Oc4nccc(CO)n4)c(F)c3)c3c(N)ncnc3n2C)cc1 [Example 498]
16 | < 100 nM | C=C(C)C(=O)Nc1ccc(-c2c(-c3ccc(Oc4cccc(C)n4)cc3)c3c(N)ncnc3n2C)nc1 [Example 533]
17 | 250 to 1000 nM | C=C(C)C(=O)Nc1ccc(-c2c(-c3ccc(OC4CCOC4)c(C)c3)c3c(N)ncnc3n2C)cc1 (centres unmarked) [Example 202]
18 | 250 to 1000 nM | C=CC(=O)N1CCC(c2c(-c3ccc(-c4ccno4)cc3)c3c(N)ncnc3n2C)C1 (centres unmarked) [Example 768]
19 | 1000 to 100000 nM | C=CC(=O)N1CCC(c2c(-c3ccc(N(C)C(C)=O)cc3)c3c(N)ncnc3n2C)C1 (centres unmarked) [Example 720]
20 | < 100 nM | C=CC(=O)Nc1ccc(-c2c(-c3ccc(C(=O)N4CCCC4)cc3)c3c(N)ncnc3n2C)cc1F [Example 217]
21 | < 100 nM | C=CC(=O)Nc1c(F)cc(-c2c(-c3ccc(C(=O)N4CCCC4)cc3)c3c(N)ncnc3n2C)cc1F [Example 219]
22 | < 100 nM | C=CC(=O)Nc1ccc(-c2c(-c3ccc(Oc4ccc(Cl)c(C)n4)cc3)c3c(N)ncnc3n2C)cc1 [Example 123]
23 | 100 to 250 nM | C=Cc1ccc(-c2c(-c3ccc(Oc4nccc(C)n4)cc3)c3c(N)ncnc3n2C)cn1 [Example 598]
24 | 250 to 1000 nM | C=C(C)C(=O)Nc1ccc(-c2c(-c3ccc(S(=O)(=O)CC4CCCC4)cc3)c3c(N)ncnc3n2C)cc1 [Example 314]
25 | 1000 to 100000 nM | C=CC(=O)N1CCC(c2c(-c3csc(CN4CCOCC4)c3)c3c(N)ncnc3n2C)C1 (centres unmarked) [Example 757]
26 | 250 to 1000 nM | CC#CC(=O)N1CCC(n2cc(-c3c(-c4ccc(Oc5cccc(C)n5)cc4)c4c(N)ncnc4n3C)cn2)CC1 [Example 644]
27 | 1000 to 100000 nM | C=C(C)C(=O)Nc1ccc(-c2c(-c3ccc(C(=O)N4CCCC4)cc3)c3c(N)ncnc3n2C)cc1OC [Example 354]
28 | < 100 nM | C=C(C)C(=O)Nc1ccc(-c2c(-c3ccc(Oc4ncc(F)c(C)n4)c(F)c3)c3c(N)ncnc3n2C)cc1 [Example 515]

Test system: SNU16 cells
Test: SNU16 Cancer Cell Line Proliferation Assay
Format: cell-based
Conditions: Homo sapiens; SNU-16 cells
How it was run: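 SNU16 cells were seeded, held 24 h at 37 degrees, then dosed with an 11-point 3-fold dilution series prepared from a 10 mM DMSO stock. After 96 h incubation, viability was read by CellTiter Glo luminescence.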

Row | IC50 | Compound
29 | ≤ 100 nM | C=C(C)C(=O)Nc1ccc(-c2c(-c3ccc(Oc4ccn(C)n4)cc3)c3c(N)ncnc3n2C)cc1 [Example 267]
30 | ≤ 100 nM | C=C(CN(C)C)C(=O)Nc1ccc(-c2c(-c3ccc(C(=O)N4CCCC4)cc3)c3c(N)ncnc3n2C)cc1 [Example 522]
31 | ≤ 100 nM | C=C(C)C(=O)Nc1ccc(-c2c(-c3ccc(C(=O)N4CCC5(CC5)C4)cc3)c3c(N)ncnc3n2C)cc1 [Example 234]
32 | 100 to 250 nM | C=CS(=O)(=O)N1CCC(n2cc(-c3c(-c4ccc(Oc5cccc(C)n5)cc4)c4c(N)ncnc4n3C)cn2)CC1 [Example 648]
33 | ≤ 100 nM | C=C(C)C(=O)Nc1ccc(-c2c(-c3ccc(C(=O)N4CCCCC4)cc3)c3c(N)ncnc3n2C)cc1 [Example 141]
34 | ≤ 100 nM | C=CC(=O)N1CC=C(c2c(-c3ccc(Oc4cccc(CC)n4)c(OC)c3)c3c(N)ncnc3n2C)CC1 [Example 690]
35 | 100 to 250 nM | C=CC(=O)N1CCC(n2cc(-c3c(-c4ccc(Oc5cnccn5)cc4)c4c(N)ncnc4n3C)cn2)CC1 [Example 642]
36 | 250 to 1000 nM | C=C(C)C(=O)Nc1ccc(-c2c(-c3ccc(C(=O)N4CCC5(CCC5)C4)cc3)c3c(N)ncnc3n2C)cc1 [Example 245]
37 | ≤ 100 nM | C=CC(=O)N1CCC(n2ncc(-c3c(-c4ccc(Oc5cccc(C)n5)cc4)c4c(N)ncnc4n3C)c2C)CC1 [Example 637]
38 | ≤ 100 nM | C=CC(=O)Nc1ccc(-c2c(-c3ccc(Oc4ncccn4)c(OC(F)(F)F)c3)c3c(N)ncnc3n2C)cc1 [Example 53]
39 | ≤ 100 nM | C=C(C)C(=O)Nc1ccc(-c2c(-c3ccc(Oc4ncc(F)cn4)cn3)c3c(N)ncnc3n2C)cc1 [Example 474]
40 | ≤ 100 nM | C=CC(=O)N1CCC(n2cc(-c3c(-c4ccc(Oc5cccc(C)n5)cc4)c4c(N)ncnc4n3C)cn2)C1 (centres unmarked) [Example 630]
41 | 250 to 1000 nM | C=CC(=O)NC1CCC(c2c(-c3ccc(Oc4cccc(C)n4)cc3)c3c(N)ncnc3n2C)CC1 (centres unmarked) [Example 662]
42 | ≤ 100 nM | C=C(C)C(=O)Nc1ccc(-c2c(-c3ccc(C(=O)NCC(C)(C)CO)cc3)c3c(N)ncnc3n2C)cc1 [Example 331]
43 | ≤ 100 nM | C=C(C)C(=O)Nc1ccc(-c2c(-c3ccc(Oc4nccc(CO)n4)c(F)c3)c3c(N)ncnc3n2C)cc1 [Example 498]
44 | ≤ 100 nM | C=C(C)C(=O)Nc1ccc(-c2c(-c3ccc(Oc4cccc(C)n4)cc3)c3c(N)ncnc3n2C)nc1 [Example 533]
45 | 100 to 250 nM | C=C(C)C(=O)Nc1ccc(-c2c(-c3ccc(OC4CCOC4)c(C)c3)c3c(N)ncnc3n2C)cc1 (centres unmarked) [Example 202]
46 | 100 to 250 nM | C=CC(=O)N1CCC(c2c(-c3ccc(-c4ccno4)cc3)c3c(N)ncnc3n2C)C1 (centres unmarked) [Example 768]
47 | 1000 to 100000 nM | C=CC(=O)N1CCC(c2c(-c3ccc(N(C)C(C)=O)cc3)c3c(N)ncnc3n2C)C1 (centres unmarked) [Example 720]
48 | ≤ 100 nM | C=CC(=O)Nc1ccc(-c2c(-c3ccc(C(=O)N4CCCC4)cc3)c3c(N)ncnc3n2C)cc1F [Example 217]
49 | ≤ 100 nM | C=CC(=O)Nc1c(F)cc(-c2c(-c3ccc(C(=O)N4CCCC4)cc3)c3c(N)ncnc3n2C)cc1F [Example 219]
50 | ≤ 100 nM | C=CC(=O)Nc1ccc(-c2c(-c3ccc(Oc4ccc(Cl)c(C)n4)cc3)c3c(N)ncnc3n2C)cc1 [Example 123]
51 | 250 to 1000 nM | C=Cc1ccc(-c2c(-c3ccc(Oc4nccc(C)n4)cc3)c3c(N)ncnc3n2C)cn1 [Example 598]
52 | 250 to 1000 nM | C=C(C)C(=O)Nc1ccc(-c2c(-c3ccc(S(=O)(=O)CC4CCCC4)cc3)c3c(N)ncnc3n2C)cc1 [Example 314]
53 | 1000 to 100000 nM | C=CC(=O)N1CCC(c2c(-c3csc(CN4CCOCC4)c3)c3c(N)ncnc3n2C)C1 (centres unmarked) [Example 757]
54 | 250 to 1000 nM | CC#CC(=O)N1CCC(n2cc(-c3c(-c4ccc(Oc5cccc(C)n5)cc4)c4c(N)ncnc4n3C)cn2)CC1 [Example 644]
55 | 250 to 1000 nM | C=C(C)C(=O)Nc1ccc(-c2c(-c3ccc(C(=O)N4CCCC4)cc3)c3c(N)ncnc3n2C)cc1OC [Example 354]
56 | ≤ 100 nM | C=C(C)C(=O)Nc1ccc(-c2c(-c3ccc(Oc4ncc(F)c(C)n4)c(F)c3)c3c(N)ncnc3n2C)cc1 [Example 515]

Source: patent publication US11780845B2 (Relay Therapeutics, Inc., priority 2019, dated 2023)
